Entries after “also recorded” stand apart in the source; their conditions may differ. Read-outs that look alike come from different tables or passages of the source.
Columns and labels:
[1] = target: T1, DYRK1A (Homo sapiens, UniProt Q13627); test: DYRK1A kinase inhibition assay (ADP-Glo Kinase Assay, DYRKtide substrate); assay type: biochemical; conditions: for DYRK1A inhibition (in words): at the concentrations tested;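 as to all read-outs here: DYRKtide phosphorylation read out by luminescence, reaction run in Tris buffer pH 7.5 with MgCl2 and BSA, containing 1% DMSO or methanol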
T1 construct: The DNA encoding DYRK1A with a non-cleavable N-terminal MBP-tag was synthesized by Genscript; made in house; host or cells: E. coli BL21 (DE3) RIPL

[2] = ref ChemSpider, cited from earlier work; for LogP: ACD/LogP; for HBA (hydrogen bond acceptor number): first figure of HBA/HBD; for PSA: polar surface area; for HBD (hydrogen bond donor number): second figure of HBA/HBD
[3] = test system: HeLa cells; test: Cell viability assay (WST-8); assay type: cell-based; conditions: 48 h treatment, WST-8, various concentrations
Method: (§1) HeLa cells were maintained in high-glucose Dulbecco’s Modified Eagle Medium (DMEM) supplemented with 10% (v/v) fetal bovine serum (FBS) at 37 °C in an incubator with 5% CO2.
HeLa cells were seeded at a density of 3.3 × 10^3 per well in 96-well plates and incubated overnight. Cells were then treated with various concentrations of flavonoids. After 48 h incubation, 10 μL of WST-8 reagent (ab228554, Abcam, Waltham, MA, USA) was added to each well and incubated for 1 h at 37 °C. Absorbance was measured at 460 nm using a microtiter plate reader (SpectraMax iD3, Molecular Devices, LLC., San Jose, CA, USA).

[4] = test system: HeLa cells; test: Cell morphology analysis (microscopy); assay type: cell-based; conditions: 72 h
Method: as §1
HeLa cells were seeded at a density of 1.5 × 10^5 per well in 6-well plates and incubated overnight. Cells were then treated with different concentrations of flavonoids for 72 h. The final concentrations of methanol and DMSO were 4% and 1%, respectively. Morphology changes were observed using an Olympus IX83 (Evident Scientific, Tokyo, Japan) inverted microscope with a 40× objective.

[5] = ADP-Glo, 100 μM ATP, 1 mg/mL DYRKtide, 30 nM DYRK1A, 1 h room temperature, read-out: IC50

Compound | DYRK1A inhibition (in words) [1] | LogP [2] | HBA (hydrogen bond acceptor number) [2] | PSA [2] [Å^2] | HBD (hydrogen bond donor number) [2] | IC50 [1, 5] [nM] | DYRK1A inhibition (in words) ([1]; listed as apigenin) | cytotoxicity / cell viability of HeLa cells (in words) [3] | cytotoxicity / cell viability of HeLa cells (in words) ([3]; listed as fisetin) | morphological changes in HeLa cells ([4]; 40 μM, 4% methanol) | IC50 [1] [nM] | DYRK1A inhibition (in words) ([1]; listed as kaempferide) | morphological changes in HeLa cells ([4]; 100 μM, 1% DMSO)
O=c1c(O)c(-c2ccccc2)oc2ccc(O)cc12 [3,6-Dihydroxyflavone] | only weak inhibition; also recorded: low inhibition of kinase | 3.64 | 4 | 67 | 2 |  |  |  |  |  |  |  | 
O=c1c(O)c(-c2ccccc2)oc2cc(O)ccc12 [3,7-Dihydroxyflavone] | only weak inhibition; also recorded: low inhibition of kinase | 3.27 | 4 | 67 | 2 |  |  |  |  |  |  |  | 
O=c1c(O)c(-c2ccccc2)oc2ccccc12 [3-Hydroxyflavone] | no detectable activity; also recorded: low inhibition of kinase | 3.76 | 3 | 47 | 1 |  |  |  |  |  |  |  | 
O=c1cc(-c2ccc(O)cc2)oc2cc(O)cc(O)c12 [Apigenin] | effective inhibition | 3.04 | 5 | 87 | 3 | 1020 | only weak inhibition |  |  |  |  |  | 
O=C1c2c(O)cc(O)cc2O[C@H](c2cc(O)c(O)c(O)c2)[C@H]1O [Dihydromyricetin] | no detectable activity; also recorded: lack of activity | 1.23 | 8 | 148 | 6 |  |  |  |  |  |  |  | 
O=c1c(O)c(-c2ccc(O)c(O)c2)oc2cc(O)ccc12 [Fisetin] |  | 2.52 | 6 | 107 | 4 | 149 |  | slight cytotoxicity effect | significantly reduced | clear apoptotic features, including cell shrinkage, detachment, and the formation of apoptosis bodies; also recorded: classic apoptosis features |  |  | 
COc1cc(-c2oc3cc(O)cc(O)c3c(=O)c2O)ccc1O [Isorhamnetin] | moderate activity | 1.76 | 7 | 116 | 4 |  |  | minimal cytotoxicity |  | clear apoptotic features, including cell shrinkage, detachment, and the formation of apoptosis bodies; also recorded: classic apoptosis features | 418 |  | 
COc1ccc(-c2oc3cc(O)cc(O)c3c(=O)c2O)cc1 [Kaempferide] | effective inhibition | 2.74 | 6 | 96 | 3 | 3520 |  |  |  |  |  | only weak inhibition; also recorded: low inhibition of kinase | 
O=c1c(O)c(-c2ccc(O)cc2)oc2cc(O)cc(O)c12 [Kaempferol, 3,5,7,4′-tetrahydroxyflavone] | moderate activity | 2.05 | 6 | 107 | 4 | 296 |  | significant cytotoxicity; also recorded: significantly reduced; also recorded: significant cytotoxic and pro-apoptotic effects |  |  |  |  | significant elongation and shrinkage; also recorded: elongated morphology
O=c1cc(-c2ccc(O)c(O)c2)oc2cc(O)cc(O)c12 [Luteolin] |  | 2.40 | 6 | 107 | 4 | 798 |  |  |  |  |  |  | 
O=c1c(O)c(-c2ccc(O)cc2O)oc2cc(O)cc(O)c12 [Morin] |  | 1.61 | 7 | 127 | 5 | 478 |  | slight cytotoxicity effect; also recorded: significantly reduced |  | clear apoptotic features, including cell shrinkage, detachment, and the formation of apoptosis bodies; also recorded: classic apoptosis features |  |  | 
O=c1c(O)c(-c2cc(O)c(O)c(O)c2)oc2cc(O)cc(O)c12 [Myricetin] |  | 2.11 | 8 | 148 | 6 | 633 |  |  |  |  |  |  | 
O=C1C[C@@H](c2ccc(O)cc2)Oc2cc(O)cc(O)c21 [Naringenin] | only weak inhibition | 3.19 | 5 | 87 | 3 |  |  |  |  |  |  |  | 
O=c1c(O)c(-c2ccc(O)c(O)c2)oc2cc(O)cc(O)c12 [Quercetin, reference compound] |  | 2.08 | 7 | 127 | 5 | 738 |  |  |  |  |  |  | 
